# Source: patent US20250326726A1, “FERROPTOSIS INHIBITORS-PHENOXAZINE ACETAMIDES” (SIRONAX (BEIJING) CO., LTD., priority 2023, published 2025)
# Tested on: HT-1080 cells
# Assay: RSL3-induced HT-1080 cells ferroptosis assay (10% FBS)
# Format: cell-based
substance,measurement,value
5-(dimethylamino)-N-((8-(trifluoromethyl)-10H-phenoxazin-3-yl)methyl)pentanamide [Compound 57],Bioactivity (RSL3-induced HT-1080 cells ferroptosis assay (10% FBS)),1 to 100 nM
